Counter-ions that a name gives are not always drawn.
Details: batch B (formoterol 7544MO) versus batch A (formoterol 7544MA); 160/4.5 μg product; same inhaler, budesonide and lactose
Protocol: A pharmacokinetic (PK) clinical study was conducted. The PK study assessed a number of key formulation parameters, metered dose (device dose cup volume), formulation blend strength, drug substance particle size and lactose particle size, using a stepwise approach. The PK study was carried out on the middle strength product (160/4.5 μg). […] For both batch A and batch B, the inhaler, the budesonide and the lactose were the same.

SMILES: COc1ccc(CC(C)NCC(O)c2ccc(O)c(NC=O)c2)cc1 (stereo not shown) [7544MO, formoterol fumarate dihydrate]
- lowering of formoterol Cmax: more than 20%

Source: patent US11071835B2, “Inhalable medicaments” (PHARMACHEMIE B.V., priority 2013, dated 2021)
